Results reported in ChEMBL document CHEMBL1124341, “1',2'-seco-dideoxynucleosides as potential anti-HIV agents” (J Med Chem, 1989).

Legend:
[1] = system: ATH-8 cell line; assay: Tested against ATH8 cells infected with HIV (2 x 10 e3 virus partials per cell) at concentrations ranging from 1 to 100 µM; No protection; type: functional, cell-based; settings: Homo sapiens
[2] = system: ATH-8 cell line; assay: Tested against ATH8 cells infected with HIV (2 x 10 e3 virus partials per cell) at concentration of 20 µM; Completely protected; type: functional, cell-based; settings: Homo sapiens

CCC(CO)OCn1cnc2c(O)nc(N)nc21 (stereo not given)
Activity [1]: No protection

CCC(CO)OCn1cnc2c(O)ncnc21 (stereo not given)
Activity [1]: No protection

CCC(CO)OCn1ccc(N)nc1=O (stereo not given)
Activity [1]: No protection

Nc1ncnc2c1ncn2[C@H]1CC[C@@H](CO)O1
Activity [2]: Completely protected

CCC(CO)OCn1cnc2c(N)ncnc21 (stereo not given)
Activity [1]: No protection
